Experimental data: ChEMBL document CHEMBL1156312, “Comparison of the antiplasmodial and falcipain-2 inhibitory activity of beta-amino alcohol thiolactone-chalcone and isatin-chalcone hybrids” (Bioorg Med Chem Lett, 2010)

Legend:
Plasmodium falciparum = experiment: Antimicrobial activity against chloroquine-resistant Plasmodium falciparum W2; assay type: functional, organism-based
[1] = Inhibition of recombinant Plasmodium falciparum falcipain-2

Compound	IC50 (Plasmodium falciparum) [µM]	IC50 [1] [µM]
COc1ccc(/C=C/C(=O)c2cccc(OCc3cn(CC(O)CN4C(=O)C(=O)c5cc(Cl)ccc54)nn3)c2)c(OC)c1OC (stereo not given)	16.7	2.57
COc1ccc(C(=O)/C=C/c2ccccc2OCc2cn(CC(O)COC3=C(C)C(=O)SC3C)nn2)c(OC)c1 (stereo not given)	> 100	2.08
COc1ccc(/C=C/C(=O)c2cccc(OCc3cn(CC(O)COC4=C(C)C(=O)SC4C)nn3)c2)cc1 (stereo not given)	> 100	3.69
COc1ccc(/C=C/C(=O)c2ccc(OCc3cn(CC(O)COC4=C(C)C(=O)SC4C)nn3)cc2)c(OC)c1OC (stereo not given)	> 100	0.81
COc1ccc(/C=C/C(=O)c2ccc(OCc3cn(CC(O)CN4C(=O)C(=O)c5cc(Cl)ccc54)nn3)cc2)c(OC)c1 (stereo not given)	18.3	14.5
COc1ccc(/C=C/C(=O)c2ccccc2OCc2cn(CC(O)COC3=C(C)C(=O)SC3C)nn2)cc1 (stereo not given)	> 100	2.64
COc1ccc(/C=C/C(=O)c2ccc(OCc3cn(CC(O)COC4=C(C)C(=O)SC4C)nn3)cc2)c(OC)c1 (stereo not given)	28.5	3.1
CCN(CC)CCCC(C)Nc1ccnc2cc(Cl)ccc12 (stereo not given) [CHLOROQUINE]	–	0.0694
COc1ccc(/C=C/C(=O)c2cccc(OCc3cn(CC(O)CN4C(=O)C(=O)c5cc(Cl)ccc54)nn3)c2)c(OC)c1 (stereo not given)	10.6	2.95
COc1ccc(C(=O)/C=C/c2ccccc2OCc2cn(CC(O)COC3=C(C)C(=O)SC3C)nn2)cc1 (stereo not given)	> 100	2.31
COc1ccc(/C=C/C(=O)c2ccc(OCc3cn(CC(O)CN4C(=O)C(=O)c5cc(Cl)ccc54)nn3)cc2)cc1 (stereo not given)	15.9	14.9
COc1ccc(/C=C/C(=O)c2ccccc2OCc2cn(CC(O)COC3=C(C)C(=O)SC3C)nn2)c(OC)c1 (stereo not given)	> 100	2.14
COc1ccc(/C=C/C(=O)c2ccc(OCc3cn(CC(O)CN4C(=O)C(=O)c5cc(Cl)ccc54)nn3)cc2)c(OC)c1OC (stereo not given)	25.1	> 20
CC1=C(OCC(O)CN=[N+]=[N-])C(C)SC1=O (stereo not given)	> 100	> 20
COc1ccc(C(=O)/C=C/c2ccccc2OCc2cn(CC(O)CN3C(=O)C(=O)c4cc(Cl)ccc43)nn2)c(OC)c1 (stereo not given)	15.6	> 20
COc1ccc(C(=O)/C=C/c2cccc(OCc3cn(CC(O)COC4=C(C)C(=O)SC4C)nn3)c2)cc1 (stereo not given)	> 100	2.43
COc1ccc(/C=C/C(=O)c2ccccc2OCc2cn(CC(O)CN3C(=O)C(=O)c4cc(Cl)ccc43)nn2)c(OC)c1OC (stereo not given)	15.3	6.21
COc1ccc(C(=O)/C=C/c2ccc(OCc3cn(CC(O)CN4C(=O)C(=O)c5cc(Cl)ccc54)nn3)cc2)cc1 (stereo not given)	10.8	10.6
COc1ccc(/C=C/C(=O)c2ccccc2OCc2cn(CC(O)CN3C(=O)C(=O)c4cc(Cl)ccc43)nn2)c(OC)c1 (stereo not given)	15	2.09
O=C1Nc2ccccc2C1=O [ISATIN]	> 100	> 20
COc1ccc(/C=C/C(=O)c2ccc(OCc3cn(CC(O)COC4=C(C)C(=O)SC4C)nn3)cc2)cc1 (stereo not given)	> 100	6.08

Compound	IC50 (Plasmodium falciparum) [µM]	IC50 [1] [µM]
COc1ccc(C(=O)/C=C/c2ccccc2OCc2cn(CC(O)CN3C(=O)C(=O)c4cc(Cl)ccc43)nn2)cc1 (stereo not given)	25.4	> 20
C=C/C(C)=C/[C@@]1(C)SC(=O)C(C)=C1O [THIOLACTOMYCIN]	> 100	> 20
COC1(OC)C(=O)N(CC(O)CN=[N+]=[N-])c2ccc(Cl)cc21 (stereo not given)	> 100	> 20
COc1ccc(C(=O)/C=C/c2ccc(OCc3cn(CC(O)COC4=C(C)C(=O)SC4C)nn3)cc2)c(OC)c1 (stereo not given)	> 100	1.54
COc1ccc(C(=O)/C=C/c2ccccc2OCc2cn(CC(O)CN3C(=O)C(=O)c4cc(Cl)ccc43)nn2)c(OC)c1OC (stereo not given)	90.5	6.1
CC1=C(O)SC(C)C1=O (stereo not given) [THIOLACTONE]	> 100	> 20
COc1ccc(C(=O)/C=C/c2cccc(OCc3cn(CC(O)COC4=C(C)C(=O)SC4C)nn3)c2)c(OC)c1OC (stereo not given)	> 100	2
COc1ccc(C(=O)/C=C/c2ccccc2OCc2cn(CC(O)COC3=C(C)C(=O)SC3C)nn2)c(OC)c1OC (stereo not given)	> 100	1.14
COc1ccc(C(=O)/C=C/c2cccc(OCc3cn(CC(O)CN4C(=O)C(=O)c5cc(Cl)ccc54)nn3)c2)cc1 (stereo not given)	10.3	5.75
COc1ccc(/C=C/C(=O)c2cccc(OCc3cn(CC(O)COC4=C(C)C(=O)SC4C)nn3)c2)c(OC)c1 (stereo not given)	> 100	3.51
COc1ccc(C(=O)/C=C/c2cccc(OCc3cn(CC(O)CN4C(=O)C(=O)c5cc(Cl)ccc54)nn3)c2)c(OC)c1OC (stereo not given)	11.5	2.18
COc1ccc(/C=C/C(=O)c2cccc(OCc3cn(CC(O)COC4=C(C)C(=O)SC4C)nn3)c2)c(OC)c1OC (stereo not given)	> 100	0.68
COc1ccc(/C=C/C(=O)c2cccc(OCc3cn(CC(O)CN4C(=O)C(=O)c5cc(Cl)ccc54)nn3)c2)cc1 (stereo not given)	9.91	3.57
COc1ccc(/C=C/C(=O)c2ccccc2OCc2cn(CC(O)CN3C(=O)C(=O)c4cc(Cl)ccc43)nn2)cc1 (stereo not given)	16	7.79
COc1ccc(C(=O)/C=C/c2ccc(OCc3cn(CC(O)COC4=C(C)C(=O)SC4C)nn3)cc2)cc1 (stereo not given)	> 100	3.12
COc1ccc(C(=O)/C=C/c2ccc(OCc3cn(CC(O)CN4C(=O)C(=O)c5cc(Cl)ccc54)nn3)cc2)c(OC)c1OC (stereo not given)	16.6	11
COc1ccc(C(=O)/C=C/c2cccc(OCc3cn(CC(O)CN4C(=O)C(=O)c5cc(Cl)ccc54)nn3)c2)c(OC)c1 (stereo not given)	6.8	3.17
COc1ccc(C(=O)/C=C/c2cccc(OCc3cn(CC(O)COC4=C(C)C(=O)SC4C)nn3)c2)c(OC)c1 (stereo not given)	> 100	1.64
COc1ccc(C(=O)/C=C/c2ccc(OCc3cn(CC(O)COC4=C(C)C(=O)SC4C)nn3)cc2)c(OC)c1OC (stereo not given)	> 100	5.04
COc1ccc(C(=O)/C=C/c2ccc(OCc3cn(CC(O)CN4C(=O)C(=O)c5cc(Cl)ccc54)nn3)cc2)c(OC)c1 (stereo not given)	–	9.73
